Experimental data taken from US7087433B2, “7SK RNA regulated transcription” (The Regents of the University of California, priority 2002, dated 2006).
Starred links: 1 amine or outer side, 2 acyl side, 3 side chain; linkers in the order of their positions; H or OH if unused. Positions of bridges follow the written chain, without caps; N, C: chain ends. Non-standard residues stand in square brackets, D forms with d. Residues, ends and D or L forms follow the SMILES beside them. Chains are numbered I, II in the order given. Actinocin(9to1) = Cc1c2oc3c(C)ccc(C(=O)[*:1])c3nc-2c(C(=O)[*:2])c(N)c1=O; NMeV = CN[C@H](C(=O)O)C(C)C; Sar = CNCC(=O)O

Key:
7SK/P-TEFb interaction [1] = test: 7SK/P-TEFb interaction in nuclear extracts of treated F1C2 cells; format: cell-based, human; conditions: nuclear extract
Source text: Certain agents that elicit SOS-like stress responses in mammalian cells can markedly enhance HIV-1 transcription in a manner analogous to prophage induction in Escherichia coli (6–8,20,21). […] In light of these observations, we investigated the effect of ultraviolet irradiation and actinomycin D on the 7SK/P-TEFb interaction in nuclear extracts of the treated F1C2 cells. […] Neither the level of total 7SK in the nuclear extract nor the CDK9/cyclin T1 interaction was affected. […] As for ultraviolet irradiation, 7SK was dissociated from P-TEFb as early as 15–30 min after treatment, long before any signs of apoptosis appeared. Thus, stress signals such as ultraviolet irradiation and actinomycin D can cause fast and efficient 7SK dissociation from P-TEFb, which explains their positive effects on HIV-1 transcription and Pol II phosphorylation.

7SK/P-TEFb interaction [2] = target: T1, 7SK/P-TEFb interaction (Homo sapiens, UniProt P50750); test: Direct incubation with nuclear extract, 7SK/P-TEFb interaction; format: binding
T1 construct: expressed in transfected cells; host or cells: F1C2 cell line (HeLa stably transfected with pBabe-puro-CDK9-Flag)

HIV-1 transcription = conditions: HeLa cells, low levels of drug; cited from earlier work
CDK9/cyclin T1 kinase = test: CDK9-Flag kinase reaction with purified RNA Pol II as substrate; format: biochemical, human; conditions: affinity-purified CDK9-Flag; degradation of associated 7SK
Experimental: 7SK could inhibit the activity of P-TEFb by suppressing the kinase activity of CDK9/cyclin T1. Affinity-purified CDK9-Flag and its associated factors were divided into two halves, incubated respectively with RNase A and DNase I, and tested in kinase reactions containing purified RNA Pol II as a substrate (9). […] This increase was significant given that only about 50% of the purified CDK9-Flag/cyclin T1 was associated with 7SK. […] To analyse more specifically the activity of P-TEFb bound to 7SK, this complex was affinity purified from HeLa nuclear extract using the 7SK antisense 2′-OMe RNA beads. Eluted with a displacement deoxyoligonucleotide (15), the P-TEFb bound to 7SK was divided into three equal portions, incubated respectively with RNase A, DNase I or buffer alone, and analysed in kinase reactions.

T1 sequence (P50750 whole entry): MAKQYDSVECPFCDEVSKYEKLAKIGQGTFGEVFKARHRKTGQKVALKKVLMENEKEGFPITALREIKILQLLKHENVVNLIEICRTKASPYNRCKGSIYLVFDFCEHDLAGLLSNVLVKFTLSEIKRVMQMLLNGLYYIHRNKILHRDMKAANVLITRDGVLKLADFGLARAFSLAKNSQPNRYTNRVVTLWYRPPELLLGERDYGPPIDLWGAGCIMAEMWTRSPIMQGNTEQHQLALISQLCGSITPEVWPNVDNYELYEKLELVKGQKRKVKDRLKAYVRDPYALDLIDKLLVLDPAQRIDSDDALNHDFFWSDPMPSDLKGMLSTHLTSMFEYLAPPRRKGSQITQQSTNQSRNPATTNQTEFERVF
T1 sequence (O60563 whole entry partner): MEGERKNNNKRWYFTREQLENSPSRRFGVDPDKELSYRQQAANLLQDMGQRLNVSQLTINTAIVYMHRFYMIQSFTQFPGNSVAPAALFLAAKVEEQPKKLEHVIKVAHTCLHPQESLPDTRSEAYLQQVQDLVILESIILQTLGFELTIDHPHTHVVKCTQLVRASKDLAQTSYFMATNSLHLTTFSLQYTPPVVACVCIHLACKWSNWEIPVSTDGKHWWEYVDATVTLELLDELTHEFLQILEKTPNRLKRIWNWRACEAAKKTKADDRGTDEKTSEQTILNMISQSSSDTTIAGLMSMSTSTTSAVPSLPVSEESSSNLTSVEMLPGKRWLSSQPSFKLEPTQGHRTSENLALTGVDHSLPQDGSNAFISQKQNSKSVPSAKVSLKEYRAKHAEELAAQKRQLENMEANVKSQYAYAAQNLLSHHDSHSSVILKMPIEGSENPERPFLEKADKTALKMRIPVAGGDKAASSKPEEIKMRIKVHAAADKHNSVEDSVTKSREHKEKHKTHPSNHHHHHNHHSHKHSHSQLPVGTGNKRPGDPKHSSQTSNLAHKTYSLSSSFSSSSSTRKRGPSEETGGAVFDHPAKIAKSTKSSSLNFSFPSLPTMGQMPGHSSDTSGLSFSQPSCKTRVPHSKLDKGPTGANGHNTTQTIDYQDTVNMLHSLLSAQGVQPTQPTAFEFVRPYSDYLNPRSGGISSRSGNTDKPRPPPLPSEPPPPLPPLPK

## Cc1c2oc3c(C)ccc(C(=O)N[C@@H]4C(=O)N[C@H](C(C)C)C(=O)N5CCC[C@H]5C(=O)N(C)CC(=O)N(C)[C@@H](C(C)C)C(=O)O[C@@H]4C)c3nc-2c(C(=O)N[C@@H]2C(=O)N[C@H](C(C)C)C(=O)N3CCC[C@H]3C(=O)N(C)CC(=O)N(C)[C@@H](C(C)C)C(=O)O[C@@H]2C)c(N)c1=O [actinomycin D] (I: T[dV]P[Sar][NMeV] / II: T[dV]P[Sar][NMeV]; ester I:1-I:C, II:1-II:C; linker I:N-II:N via Actinocin(9to1))
7SK/P-TEFb interaction [1]
  amount of 7SK associated with affinity-purified CDK9-Flag: significantly reduced the amount of 7SK associated with the affinity-purified CDK9-Flag
7SK/P-TEFb interaction [2]
  7SK/P-TEFb interaction: did not disrupt the 7SK/P-TEFb interaction
HIV-1 transcription
  HIV-1 transcription: enhances HIV-1 transcription to levels similar to those obtained by Tat

B1: RNase A: ribonuclease used to degrade the CDK9-Flag-associated 7SK (protein, UniProt P61823 27-150, looked up)
Ribonuclease pancreatic: KETAAAKFERQHMDSSTSAASSSNYCNQMMKSRNLTKDRCKPVNTFVHESLADVQAVCSQKNVACKNGQTNCYQSYSTMSITDCRETGSSKYPNCAYKTTQANKHIIVACEGNPYVPVHFDASV
CDK9/cyclin T1 kinase
  increase of kinase activity of CDK9-Flag (autophosphorylation and phosphorylation of Pol II): 3-4 fold
